Reference: patent US9796700B2 (Celgene CAR LLC, priority 2013, dated 2017)
Like-named read-outs stand apart in the source and are kept apart here.

Key:
[1] = target: MEK1 activated ERK1 (Homo sapiens (Human), UniProt P27361); test: Omnia continuous-read kinase assay for potency against MEK1 activated ERK1; format: biochemical; settings: MEK1 activated ERK1, WT, ATP at KM
How it was run: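 Apparent IC50 came from initial reaction slopes (RFU vs time) plotted against log inhibitor with a variable-slope fit. Reactions were started with ERK1 (4 nM final) added to 50 μM ATP, roughly at its appKM, and 10 μM Sox-conjugated ST17 peptide in 20 mM Tris pH 7.5, 5 mM MgCl2. Fluorescence was monitored every 71 seconds.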

[2] = target: Erk1 (Homo sapiens (Human), UniProt P27361); test: Protein Mass Modification Assay (intact protein MALDI); format: binding
How it was run: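 Percent covalent modification comes from the intact-protein MALDI centroid mass shift, treated versus control, divided by compound MW. Before analysis, human Erk1 was exposed to compound at 10-fold excess over protein for 60 min at room temperature.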

[3] = tested on: ERK1 phosphorylation of its substrate RSK in HT29 cells; test: pRSK MSD Assay in HT29 cells; format: cell-based; settings: read-out: ERK1 PRSK MSD HT29 EC50
Method: The protocol below describes an assay to measure the kinase activity of ERK1 to phosphorylate its substrate, RSK, in the presence of a test compound. This experiment was conducted using a Mesoscale Discovery plate. The day before the assay, HT29 cells were split and plated at 50,000 cells/well in complete growth media. After allowing cells to adhere, the media was removed and replaced with media containing 0.1% FBS and incubated overnight. Blank MDS plates were coated with 25 μl/well RSK capture antibody and incubated at 4° C. overnight. The next day, the media was removed and replaced with 100 μl of media containing a test compound and incubated for 120 minutes at 37° C. The media was removed and replaced with 55 μl of well lysis buffer with protease and phosphatase inhibitors provided in the kit, followed by incubation at 4° C. for 30 minutes. 50 μl of lysate was transferred to a blocked MSD plate, followed by incubation at room temperature for 2 hours under constant shaking. The plate was washed 3 times with MSD wash buffer (cat#R617TX), and 25 μl/well phospho-RSK (pRSK) detection antibody was added with an appropriate Sulfo-tagged anti-species detection antibody diluted in 1% BSA in MSD wash buffer. This mixture was incubated for 1 hour at room temperature under constant shaking. The plate was washed 3 times, and 150 μl 1×MSD read buffer was added, followed by signal detection in an MSD plate reader.

[4] = tested on: HT-29 cells; test: Measurement of inhibition of cancer cell proliferation (CellTiterGlo); format: cell-based; settings: Homo sapiens, 72 hours
Method: Measurement of Inhibition of Cancer Cell Proliferation
HT-29 cells were split and 3000 cells in 100 μl of growth medium were added per well of a flat-bottom 96-well plate. A two-fold test compound solution in serum-free RPM1640 was made, starting at 5,000 nM. Then, 3-fold serial dilutions were made across the plate from well 1 to well 11. Well 12, the last well in a row on the plate, was left as untreated control. 100 μl compound solutions were then transferred to the wells, so the total volume of media was 200 μl per well. Plates were returned to a 37° C. incubator, and the cells were cultured for 72 hours. To measure cell proliferation after 72 hours, media was discarded from the plates, 50 μl/well of fresh medium was added, and 50 μl CellTiterGlo solution was added (Promega Cat#G7573). The plate was covered with a dark lid and incubated for 10 min. A sealing tape was applied to the bottom of the plate, and the plate was read in a luminescence plate reader. […] A 2-fold serial dilution was used to generate 8 cell densities from 50,000-390 cells per well in 50 μl media. 50 μl CellTiterGlo was added per well, and the plate was read in a luminescence plate reader after 10 min. The reading was plotted vs. cell number to generate a standard curve and the equation of the curve fit. The compound-treated sample luminescence readings were converted to cell numbers using the equation. The percent of inhibition, using untreated control as 100% growth, was then calculated. GI50 was then calculated by GraphPad Prism.

[5] = Homo sapiens, HT-29, HT29 cells

Erk1, sequence (P27361 whole entry, looked up): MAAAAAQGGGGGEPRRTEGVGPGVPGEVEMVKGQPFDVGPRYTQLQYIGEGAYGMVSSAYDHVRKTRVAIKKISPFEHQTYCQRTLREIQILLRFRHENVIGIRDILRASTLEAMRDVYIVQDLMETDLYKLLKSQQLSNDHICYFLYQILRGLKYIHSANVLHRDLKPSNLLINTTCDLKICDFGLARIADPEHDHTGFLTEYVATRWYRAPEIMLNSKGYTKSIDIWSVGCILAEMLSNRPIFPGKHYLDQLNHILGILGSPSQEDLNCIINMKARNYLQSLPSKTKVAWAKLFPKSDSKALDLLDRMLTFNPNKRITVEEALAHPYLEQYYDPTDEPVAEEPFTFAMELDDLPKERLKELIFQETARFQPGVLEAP
MEK1 activated ERK1, sequence (P27361 whole entry): as the sequence (P27361 whole entry, looked up) above

SMILES	IC50 [1] [nM]	ERK1 Mass Mod (%) [2]	EC50 [3, 5] [nM]	GI50 [4] [nM]	EC50 ([3]; HT29 cells) [nM]
C=C(C)S(=O)(=O)Nc1ccccc1Nc1nc(NC2CCC(=O)CC2)ncc1C(F)(F)F [Compound I-40, N-(2-((2-((4-Oxocyclohexyl)amino)-5-(trifluoromethyl)pyrimidin-4-yl)amino)phenyl)prop-1-ene-2-sulfonamide]	< 100	F (provided a mass modification of 31-69%)	> 1000	–	–
C=CC(=O)Nc1cc(C)ccc1Nc1nc(N[C@H]2CCCN(C(=O)CC)C2)ncc1C(F)(F)F [Compound I-41, (S)—N-(5-Methyl-2-((2-((1-propionylpiperidin-3-yl)amino)-5-(trifluoromethyl)pyrimidin-4-yl)amino)phenyl)acrylamide]	< 100	E (provided a mass modification of ≧70%)	101 to 500	–	–
C/C=C/S(=O)(=O)Nc1cc(F)ccc1Nc1nc(N[C@H]2CCCN(C(=O)CO)C2)ncc1C(F)(F)F [Compound I-48, (S,E)-N-(5-Fluoro-2-((2-((1-(2-hydroxyacetyl)piperidin-3-yl)amino)-5-(trifluoromethyl)pyrimidin-4-yl)amino)phenyl)prop-1-ene-1-sulfonamide]	< 100	G (proived a mass modification ≦30%)	> 1000	–	–
C=CC(=O)Nc1ccccc1Nc1nc(Nc2ccc(N3CCN(C(C)=O)CC3)cc2OC)ncc1C(F)(F)F [Compound I-66, N-(2-((2-((4-(4-Acetylpiperazin-1-yl)-2-methoxyphenyl)amino)-5-(trifluoromethyl)pyrimidin-4-yl)amino)phenyl)acrylamide]	–	E (key: E: provided a mass modification of ≧70%; F: provided a mass modification of 31-69%; G: proived a mass modification ≦30%)	–	101 to 500	–
C=CC(=O)Nc1ccccc1Nc1nc(NC2CCOCC2)ncc1Cl [Compound I-108, N-(2-((5-chloro-2-((tetrahydro-2H-pyran-4-yl)amino)pyrimidin-4-yl)amino)phenyl) acrylamide]	< 100	E (provided a mass modification of ≧70%)	< 100	–	–
C=CC(=O)Nc1ccccc1Nc1nc(N[C@H]2CC[C@@H](F)CC2)ncc1C(F)(F)F [Compound I-110, N-(2-((2-(cis-(4-fluorocyclohexyl)amino)-5-(trifluoromethyl)pyrimidin-4-yl)amino)phenyl)acrylamide]	101 to 500	E (provided a mass modification of ≧70%)	101 to 500	–	–
C=CC(=O)Nc1ccccc1Nc1nc(N[C@H]2CC[C@H](F)CC2)ncc1C(F)(F)F [Compound I-111, N-(2-((2-(trans-(4-fluorocyclohexyl)amino)-5-(trifluoromethyl)pyrimidin-4-yl)amino)phenyl)acrylamide]	101 to 500	E (provided a mass modification of ≧70%)	–	–	101 to 500
C=CC(=O)Nc1ccccc1Nc1nc(Nc2ccc(N3CCN(C(C)=O)CC3)cc2OC)ncc1Cl [Compound I-149, N-(2-((2-((4-(4-acetylpiperazin-1-yl)-2-methoxyphenyl)amino)-5-chloropyrimidin-4-yl)amino)phenyl)acrylamide]	–	E (key: E: provided a mass modification of ≧70%; F: provided a mass modification of 31-69%; G: proived a mass modification ≦30%)	–	101 to 500	–
C=CC(=O)Nc1cc(Cl)ccc1Nc1nc(Nc2cc(OC)ncc2C)ncc1Cl [Compound I-248, N-(5-chloro-2-((5-chloro-2-((2-methoxy-5-methylpyridin-4-yl)amino)pyrimidin-4-yl)amino)phenyl)acrylamide]	< 100	E (provided a mass modification of ≧70%)	101 to 500	–	–
CC(C)=CC(=O)c1ccccc1Oc1nc(Nc2ccc(F)cc2C)ncc1C(N)=O [Compound I-272, 2-((4-fluoro-2-methylphenyl)amino)-4-(2-(3-methylbut-2-enoyl)phenoxy)pyrimidine-5-carboxamide]	> 1000	G (proived a mass modification ≦30%)	> 1000	–	–
C=CC(=O)Nc1ccccc1Nc1nc(Nc2cc(OC)nc(N3CCN(C)CC3)c2)ncc1C(F)(F)F [Compound I-324, N-(2-((2-((2-methoxy-6-(4-methylpiperazin-1-yl)pyridin-4-yl)amino)-5-(trifluoromethyl)pyrimidin-4-yl)amino)phenyl)acrylamide]	< 100	E (provided a mass modification of ≧70%)	101 to 500	–	–
C=CC(=O)Nc1ccccc1Nc1nc(Nc2c[nH]nc2C)ncc1C(F)(F)F [Compound I-330, N-(2-((2-((3-methyl-1H-pyrazol-4-yl)amino)-5-(trifluoromethyl)pyrimidin-4-yl)amino)phenyl)acrylamide]	> 1000	E (provided a mass modification of ≧70%)	> 1000	–	–
C=CC(=O)Nc1cc(C)ccc1Nc1nc(Nc2cnnc(Cl)c2)ncc1C(F)(F)F [Compound I-331, N-(2-((2-((6-chloropyridazin-4-yl)amino)-5-(trifluoromethyl)pyrimidin-4-yl)amino)-5-methylphenyl)acrylamide]	> 1000	E (provided a mass modification of ≧70%)	101 to 500	–	–
C=CC(=O)Nc1cc(C)ccc1Nc1nc(Nc2cc(OC)cc(OC)c2)ncc1C(F)(F)F [Compound I-339, N-(2-((2-((3,5-dimethoxyphenyl)amino)-5-(trifluoromethyl)pyrimidin-4-yl)amino)-5-methylphenyl)acrylamide]	> 1000	E (provided a mass modification of ≧70%)	101 to 500	–	–
C=CC(=O)Nc1cc(C)ccc1Nc1nc(Nc2nc(OC)ncc2Cl)ncc1C(F)(F)F [Compound I-344, N-(2-((2-((5-chloro-2-methoxypyrimidin-4-yl)amino)-5-(trifluoromethyl)pyrimidin-4-yl)amino)-5-methylphenyl)acrylamide]	< 100	E (provided a mass modification of ≧70%)	< 100	–	–
C=CC(=O)Nc1cc(C)ccc1Nc1nc(Nc2nc(OC)ncc2C)ncc1C(F)(F)F [Compound I-347, N-(2-((2-((2-methoxy-5-methylpyrimidin-4-yl)amino)-5-(trifluoromethyl)pyrimidin-4-yl)amino)-5-methylphenyl)acrylamide]	101 to 500	E (provided a mass modification of ≧70%)	101 to 500	–	–
C=CC(=O)Nc1cc(C)ccc1Nc1nc(Nc2cc(OC)ncn2)ncc1C(F)(F)F [Compound I-348, N-(2-((2-((6-methoxypyrimidin-4-yl)amino)-5-(trifluoromethyl)pyrimidin-4-yl)amino)-5-methylphenyl)acrylamide]	> 1000	G (proived a mass modification ≦30%)	501 to 999	–	–
CCC(=O)Nc1cc(C)ccc1Nc1nc(Nc2cc(OC)ncc2C)ncc1C(F)(F)F [Compound I-352, N-(2-((2-((2-methoxy-5-methylpyridin-4-yl)amino)-5-(trifluoromethyl)pyrimidin-4-yl)amino)-5-methylphenyl)propionamide]	> 1000	G (proived a mass modification ≦30%)	> 1000	–	–
COc1cc(Nc2ncc(C(F)(F)F)c(Nc3ccc(C)cc3N)n2)c(C)cn1 [Compound I-353, N^4-(2-amino-4-methylphenyl)-N^2-(2-methoxy-5-methylpyridin-4-yl)-5-(trifluoromethyl)pyrimidine-2,4-diamine]	> 1000	G (proived a mass modification ≦30%)	> 1000	–	–
